Data: publication PMC12254266, “Multicolored sequential resonance energy transfer for detection of simultaneous ligand binding at G protein-coupled receptors” (Nature Communications, 2025)
Values joined by “and” are separate entries in the source; they are usually repeats but may differ in a detail not shown here. Equal values may be shown once.

Experiments:
FFA1 [1] = biological target: T1, FFA1 (Homo sapiens, UniProt O14842); experiment: NanoBiT arrestin-3 recruitment in HEK293T cells; type: cell-based; set-up: expressed in transfected cells; host or cells: HEK293T, transient; conditions: for Arrestin recruitment (% TUG-905): technical duplicate
Method: For arrestin-3 recruitment assays, HEK293T cells were transfected with FFA1 receptor and a bystander NanoBiT split luciferase arrestin-3 recruitment biosensor. Cells were transfected and plated simultaneously in a reverse transfection protocol into a poly-D-lysine coated white 96-well plate. Per well, 60,000 cells were transfected with 5 ng plasmid expressing LgBiT with a N-terminal Lyn11 plasma membrane localisation tag, 5 ng plasmid expressing bovine arrestin-3 fused at its N-terminal to SmBiT tag and 30 ng plasmid expressing the human FFA1 receptor. Total DNA was made up to 100 ng total/well with empty pcDNA3 vector and transfected to cell suspension with 0.6 µg/well PEI. Following transfection cells were cultured for 24 h before use. On the day of assay, cells were washed twice with HBSS and incubated in HBSS for 30 min at 37 °C. NanoGlo substrate was added at a final 1:800 dilution and incubated in the dark for 10 min at 37 °C. […] Raw luminescence values were divided by baseline signal (average of first 5 data points prior to compound addition) and vehicle measurements subtracted from agonist treatment. Area under curves were calculated and concentration response curves plotted.

Nluc-FFA1 = biological target: T2, Nluc-FFA1 (Homo sapiens, UniProt O14842); experiment: NanoBRET binding (saturation, competition, kinetics) at N terminal Nluc tagged FFA1; conditions: for Specific BRET (690/450)%: Figure 4Ci; for Specific BRET (690/450)% / Specific BRET (540/450)%: technical duplicates; for Specific BRET (540/450)%: Figure 4Cii
T2 construct: expressed in transfected cells

FFA1 [2] = biological target: T1, FFA1; experiment: Ca2+ mobilisation (Fura2) in Flp-In T-REx 293 cells expressing Nluc-FFA1, FFA1-Nluc or untagged FFA1; type: cell-based; set-up: expressed in transfected cells; conditions: for Ca2+ Response as a % of T360 Response: single technical replicates
Outline: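 520 nm emission read at 340 and 380 nm excitation over 90 s spanning compound addition. Response taken as peak 340/380 ratio after subtracting pre-addition ratios.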

FFA1-Nluc = FFA1-Nluc (Homo sapiens, UniProt O14842); experiment: Bystander BRET internalisation assay, FFA1-Nluc in HEK293T cells; type: cell-based; set-up: expressed in transfected cells; host or cells: HEK293T (ATCC, CRL-3216), transient; conditions: in words; up to 60 min
Method: Cells were transfected using a reverse transfection protocol while plating into a poly-D-lysine coated white 96-well plates. Cells were plated at 60,000 cells with 100 ng of plasmid DNA and 0.6 µg of polyethyleneimine (PEI) per well. Cells were cultured for 24 h before washing with HBSS and incubating in HBSS at 37 °C for 30 min. NanoGlo substrate was added a final 1:800 dilution and plates incubated for 10 min at 37 °C. […] After 5 min of baseline measurements, readings were paused and test compounds added to the plate.

T1 sequence (O14842 whole entry, the tested form may be a part): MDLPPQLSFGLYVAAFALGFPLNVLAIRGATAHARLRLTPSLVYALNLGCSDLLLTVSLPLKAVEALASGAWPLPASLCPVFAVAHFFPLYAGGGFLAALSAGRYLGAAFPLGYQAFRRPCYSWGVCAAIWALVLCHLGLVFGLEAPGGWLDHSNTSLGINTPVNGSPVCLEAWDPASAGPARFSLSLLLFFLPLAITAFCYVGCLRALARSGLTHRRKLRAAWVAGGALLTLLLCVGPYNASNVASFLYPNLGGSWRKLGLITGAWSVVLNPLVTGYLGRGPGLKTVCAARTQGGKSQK
T2 sequence (O14842 whole entry): as the sequence (O14842 whole entry, the tested form may be a part) above
Chain of FFA1-Nluc (O14842 whole entry): as the sequence (O14842 whole entry, the tested form may be a part) above

COc1ccc(CCCC(C)(C)C)c(N2CCC(COc3cccc(C(CC(=O)O)C4CC4)c3)CC2)c1.O=C(O)C(F)(F)F (stereo not drawn) [T360]
Arrestin recruitment (% TUG-905) (FFA1 [1]; log[Ligand] -7): 60.5575 % TUG-905 and 49.7987 % TUG-905 and 50.2806 % TUG-905 and 80.5606 % TUG-905 and 71.6469 % TUG-905 and 70.6208 % TUG-905 | Arrestin recruitment (% TUG-905) (FFA1 [1]; log[ligand] -6): 47.2004 % TUG-905 and 63.2995 % TUG-905 and 73.3709 % TUG-905 and 81.6896 % TUG-905 and 75.2182 % TUG-905 and 56.718 % TUG-905 | Arrestin recruitment (% TUG-905) (FFA1 [1]; log[ligand] -6.5): 57.9984 % TUG-905 and 49.7595 % TUG-905 and 71.7903 % TUG-905 and 68.6055 % TUG-905 and 72.4316 % TUG-905 and 77.5018 % TUG-905 | Arrestin recruitment (% TUG-905) (FFA1 [1]; log[ligand] -7.5): 57.0191 % TUG-905 and 67.1382 % TUG-905 and 59.7164 % TUG-905 and 62.616 % TUG-905 and 83.9201 % TUG-905 and 49.002 % TUG-905 | EMax (% TUG-905) arrestin-3 recruitment (FFA1 [1]; percentage of the response to 10 μM TUG-905, ± SEM): 66 ± 8% | pEC50 arrestin-3 recruitment (FFA1 [1]; ± SEM, N=3): 8.9 ± 0.4 | Specific BRET (690/450)% (Nluc-FFA1; log[Ligand] -5): 144.71% and 144.91% and 150.40% and 149.82% and 134.29% and 145.90% | Specific BRET (690/450)% (Nluc-FFA1; log[Ligand] -5.5): 150.41% and 165.34% and 156.87% and 151.43% and 153.00% and 148.40% | Specific BRET (690/450)% (Nluc-FFA1; log[Ligand] -6): 147.37% and 160.23% and 150.08% and 152.06% and 150.91% and 153.01% | Specific BRET (690/450)% (Nluc-FFA1; log[Ligand] -6.5): 152.25% and 156.48% and 155.51% and 156.07% and 157.69% and 151.71% | Specific BRET (690/450)% (Nluc-FFA1; log[Ligand] -7): 145.58% and 149.69% and 148.14% and 147.21% and 151.85% and 147.91% | Specific BRET (690/450)% (Nluc-FFA1; log[Ligand] -8): 131.96% and 136.95% and 136.24% and 131.47% and 126.78% and 129.57% | Specific BRET (690/450)% (Nluc-FFA1; log[Ligand] -9): 110.80% and 118.14% and 114.71% and 107.71% and 113.55% and 115.30% | Specific BRET (690/450)% (Nluc-FFA1; log[Ligand] -10): 99.19% and 105.01% and 94.99% and 98.91% and 101.09% and 100.81% | Specific BRET (540/450)% (Nluc-FFA1; log[Ligand] -6.5): 37.02% and 22.26% and 31.97% and 27.51% and 29.14% and 29.84% and 21.82% and 24.91% | Specific BRET (540/450)% (Nluc-FFA1; log[Ligand] -7): 53.44% and 33.59% and 38.71% and 49.07% and 47.92% and 48.08% and 44.12% and 39.90% | Specific BRET (540/450)% (Nluc-FFA1; log[Ligand] -8): 84.61% and 81.81% and 70.02% and 81.70% and 81.41% and 76.64% and 80.12% | Specific BRET (540/450)% (Nluc-FFA1; log[Ligand] -9): 105.73% and 99.36% and 90.61% and 103.73% and 98.31% and 99.33% and 93.77% | Specific BRET (540/450)% (Nluc-FFA1; log[Ligand] -10): 104.20% and 95.80% and 91.09% and 108.91% and 101.37% and 98.63% and 98.32% and 101.68% | 'bottom' of the IC50 curve fit, Nano-BRET TUG-2591 (Nluc-FFA1; percentage of binding in the absence of competing ligand, tracer TUG-2591 100 nM): 150% | 'bottom' of the IC50 curve fit, Nano-BRET TUG-2597 (Nluc-FFA1; percentage of binding in the absence of competing ligand, tracer TUG-2597 […]): 5.3% | pIC50 Nano-BRET TUG-2597 (Nluc-FFA1; tracer TUG-2597 […], NBD/Nluc): 7.1±0.03 | pKi Nano-BRET TUG-2597 (Nluc-FFA1; using Kd TUG-2597 380 nM): 7.4±0.03 | pEC50 (FFA1 [2]; Ca2+ data, mean±SEM, NR = No response): 7.48±0.31 | Ca2+ Response as a % of T360 Response (FFA1 [2]; log[Ligand] -6): 107.28% and 92.72% and 101.13% and 98.87% and 101.25% and 98.75% | Ca2+ Response as a % of T360 Response (FFA1 [2]; log[Ligand] -6.5): 78.71% and 83.08% and 86.23% and 89.07% and 107.10% and 103.71% | Ca2+ Response as a % of T360 Response (FFA1 [2]; log[Ligand] -7): 50.40% and 57.83% and 53.05% and 49.34% and 105.47% and 92.83% | Ca2+ Response as a % of T360 Response (FFA1 [2]; log[Ligand] -7.5): 52.48% and 51.74% and 26.53% and 33.96% and 89.83% and 84.58% | Ca2+ Response as a % of T360 Response (FFA1 [2]; log[Ligand] -8): 4.55% and 3.96% and 1.45% and 1.23% and 56.26% and 55.08% | Ca2+ Response as a % of T360 Response (FFA1 [2]; log[Ligand] -9): 6.44% and -16.92% and -0.13% and -0.73% and -0.82% and -0.55% | Ca2+ Response as a % of T360 Response (FFA1 [2]; log[Ligand] -10): -18.12% and -11.48% and -0.62% and 0.09% and -1.11% and 0.64% | EMax (FFA1 [2]; percentage of response to 10 μM T360, NR = No response): 105±5% | internalization of FFA1-Nluc (FFA1-Nluc): No internalization
